Laboratory results published in USRE32519E, “Sulfur-containing isoquinoline derivatives, process for the preparation thereof and pharmaceutical compositions containing them” (Chinoin Gyogyszer es Vegyeszeti Termekek Gyara, priority 1979, dated 1987).
Counter-ions that a name gives are not always drawn. Like-named read-outs stand apart in the source and are kept apart here.

What was measured:
cyclic oxygenase = target: T1, cyclic oxygenase (Ovis aries, UniProt P05979); test: effect on biosynthesis of prostaglandins: activity of cyclic oxygenase, oxygen consumption with arachidonic acid substrate (Clark electrode); assay type: biochemical, sheep; conditions: for AC50: concentration for 50% increase in oxygen consumption; for EC (100% increase): concentration for 100% increase in oxygen consumption, read-out: AC100%
T1 construct: As an enzyme source a homogenizate of sheep spermatocele; from tissue; host or cells: homogenate of sheep 'spermatocele' (read as seminal vesicle)
T1 sequence (P05979 25-600): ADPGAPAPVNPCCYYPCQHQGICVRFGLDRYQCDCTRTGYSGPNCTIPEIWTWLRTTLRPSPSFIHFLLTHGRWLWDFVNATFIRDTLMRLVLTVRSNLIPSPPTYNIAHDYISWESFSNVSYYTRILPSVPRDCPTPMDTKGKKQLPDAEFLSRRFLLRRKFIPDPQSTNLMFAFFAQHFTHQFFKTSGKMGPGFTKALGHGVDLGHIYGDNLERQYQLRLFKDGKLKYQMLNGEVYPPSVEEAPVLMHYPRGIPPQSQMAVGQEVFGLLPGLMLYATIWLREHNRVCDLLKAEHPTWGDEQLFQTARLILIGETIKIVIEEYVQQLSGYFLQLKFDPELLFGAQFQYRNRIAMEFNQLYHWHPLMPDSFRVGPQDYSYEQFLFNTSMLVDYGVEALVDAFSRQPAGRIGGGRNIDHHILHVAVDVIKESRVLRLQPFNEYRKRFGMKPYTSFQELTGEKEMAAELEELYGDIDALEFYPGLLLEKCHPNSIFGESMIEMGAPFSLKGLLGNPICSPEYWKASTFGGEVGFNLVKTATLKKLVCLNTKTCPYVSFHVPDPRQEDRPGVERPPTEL
Procedure: The effect of the compounds of the formula (I) on the biosynthesis of prostaglandins was determined by a known technique (J. Biol. Chem., 246, 6700; 1971). As an enzyme source a homogenizate of sheep spermatocele and as a substrate arachidonic acid were used. The transformation of the substrate, which involves oxygen consumption, was monitored on the basis of the change of the concentration of dissolved oxygen, which was measured by a Clark electrode. During the measurements the concentration of the active compounds, which involved a 50% and 100%, respectively, […] in the oxygen consumption were determined. The concentrations were expressed in μM/lit. The results obtained are contained in the Table below. |The effect of the compounds of the formula |(I) on the activity of cyclic oxygenase |Substrate: arachidonic acid

[1] = diuretic activity on rats, quantity of urine passed in 4 hours; assay type: in vivo; conditions: 2 mg/kg. dose, compared with 2 mg/kg. p.o. Hypothiazid
Procedure: (§1) The diuretic activity of the compounds of the formula (I) was tested on rats. The quantity of the urine passed in 4 hours and of the discharged Na^+ and K^+ ions were determined by known methods (Arzneimitt. Forsch. 27, 559; 1978). The antiinflammatory activity was tested in paw oedema on rats. The oedema was induced by carrageenien and the inhibition was expressed in %.

[2] = tested on: isolated trachea of guinea pigs; test: relaxant activity on isolated trachea of guinea pigs; conditions: for relaxant effect relative to theophylline: 1 μg/ml. dose; for relaxant activity relative to theophylline: related to a 95 to 100% relaxation
Procedure: According to a test carried out on isolated trachea of guinea pigs (J. Pharm. Pharmac. 31, 798; 1979) the compounds prepared according to the invention have a relaxant activity. […] The activity of the compounds obtained in Example 4 is significant also at a dose of 0.1 μg/ml.

acetylcholine = test: antagonistic activity against acetylcholine on ileum of guinea pigs
histamine = test: antagonistic activity against histamine on ileum of guinea pigs; conditions: for effect against histamine relative to theophylline: 50 μg/ml. antagonistic dose
[3] = acute toxicity (LD50) on mice; conditions: mouse, in vivo, po
serotonine = serotonine antagonistic effect on gastric fundus strip of rats; conditions: 10 μg/ml. antagonistic dose
paw oedema = test: antiinflammatory activity, carrageenien-induced paw oedema on rats; assay type: in vivo
Procedure: as §1, with “carrageenien and the” left out

Compound	AC50 (cyclic oxygenase) [µM]	EC (100% increase) (cyclic oxygenase) [µM]	inhibition (serotonine antagonistic effect) (serotonine) [%]	also measured
CCN(CC)CCSC(C#N)C1=NCCc2cc(OC)c(OC)cc21 (stereo not drawn) [Example 14, α-(2-diethylaminoethyl)-mercapto-6,7-dimethoxy-3,4-dihydro-1-isoquinolyl-acetonitrile hydrochloride]	280	395	–	–
COc1cc2c(cc1OC)C(C(C#N)SCCC(=O)O)=NCC2 (centres unmarked) [Example 9]	95	–	–	increase of the quantity of the urine secreted [1]: to the same extent as a 2 mg/kg. p.o. dose of Hypothiazid; relaxant effect relative to theophylline [2]: only half of its effect; relaxant activity relative to theophylline [2]: the same activity as theophylline; activity against acetylcholine relative to theophylline (acetylcholine; 50 μg/ml. antagonistic dose): the same activity; maximum inhibition (acetylcholine) (acetylcholine; in a dose of 100 μg/ml.): 55%; effect against histamine relative to theophylline (histamine): the same effect as theophylline; maximum inhibition (histamine) (histamine; 100 μg/ml.): 26%; LD50 ([3]; p.o. on mice, read-out: LD50): > 500 mg/kg
CCOC(=O)CSC(C#N)C1=NCCc2cc(OC)c(OC)cc21 (stereo not drawn) [Example 18, α(ethoxycarbonyl)-methyl-mercapto-6,7-dimethoxy-3,4dihydro-1-isoquinolyl-acetonitrile]	69	138	–	–
N#CC(SCC(=O)O)C1=NCCc2ccccc21 (stereo not drawn) [Example 5, α-carboxy-methyl-mercapto-3,4-dihydro-isoquinolyl-acetonitrile]	40	80	–	–
N#CC(SCCC(=O)O)C1=NCCc2ccccc21 (stereo not drawn) [Example 8, α-(2-carboxyethyl)-mercapto-3,4-dihydro-1-isoquinolyl-acetonitrile]	48	96	8	–
COc1cc2c(cc1OC)C(C(C#N)SCC(=O)O)=NCC2 (stereo not drawn) [Example 6, α-carboxymethylmercapto-6,7-dimethoxy-3,4-l-dihydro-1-isoquinolyl-acetonitrile]	60	225	16	increase of the quantity of the urine secreted [1]: to the same extent as a 2 mg/kg. p.o. dose of Hypothiazid; LD50 ([3]; p.o. on mice, read-out: LD50): > 500 mg/kg
COc1cc2c(cc1OC)C(C(C#N)SC(C)C(=O)O)=NCC2 (stereo not drawn) [Example 12, α-(1-carboxy-1-ethyl)-mercapto-6,7-dimethoxy-3,4-dihydro-1-isoquinolyl-acetonitrile]	105	–	–	–
COc1cc2c(cc1OC)C(C(C#N)SCCN(C)C)=NCC2 (stereo not drawn) [Example 15, α-(2-dimethylaminoethyl)-mercapto-6,7-dimethoxy-3,4-dihydro-1-isoquinolyl-acetonitrile hydrochloride]	62	124	–	–
COc1cc2c(cc1OC)C(C(C#N)SCCCO)=NCC2 (stereo not drawn) [Example 4, α-(3-hydroxy-propylmercapto)-6,7-dimethoxy-3,4-dihydro-1-isoquinolyl-acetonitrile]	70	140	80	inhibition in paw oedema test (paw oedema; 100 mg/kg. p.o. dose, rats): 20%; relaxant effect relative to theophylline [2]: five-times more effective than theophylline; relaxant activity ([2]; dose of 0.1 μg/ml.): significant; relaxant activity relative to theophylline [2]: five-times higher activity than theophylline; activity against acetylcholine relative to theophylline (acetylcholine; 50 μg/ml. antagonistic dose): six-times more active; maximum inhibition (acetylcholine) (acetylcholine; in a dose of 50 μg/ml.): 100%; maximum inhibition (histamine) (histamine; 50 μg/ml.): 100%; effect against histamine relative to theophylline (histamine): six-times more potent; LD50 ([3]; p.o. on mice, read-out: LD50): > 500 mg/kg
COc1cc2c(cc1OC)C(C(C#N)SCC(=O)NN)=NCC2 (stereo not drawn) [Example 22, α-(carbohydrazidomethyl)-mercapto-6,7-dimethoxy-3,4-dihydro-1-isoquinolyl-acetonitrile]	720	1800	–	–
COc1cc2c(cc1OC)C(C(C#N)SCCO)=NCC2 (stereo not drawn) [Example 3, α-(2-hydroxy-ethylmercapto)-6,7-dimethoxy-3,4-dihydro-1-isoquinolyl-acetonitrile]	100	200	–	inhibition in paw oedema test (paw oedema; 100 mg/kg dose, rats (route not given)): 20%; LD50 ([3]; per os on mice, read-out: DL): > 500 mg/kg
Cn1c(=O)c2[nH]cnc2n(C)c1=O [theophylline, reference compound]	–	–	8	inhibition against acetylcholine (acetylcholine; 50 μg/ml. antagonistic dose): 16%; maximum inhibition (acetylcholine) (acetylcholine; at a dose of 200 μg/ml.): 30%
